Test results: patent US20250313820A1, “PEPTIDES WITH MULTIVALENT EFFECTS” (In2Cure AB, priority 2021, published 2025)
Like-named read-outs stand apart in the source and are kept apart here. Marks after values point to notes of the source that are not given here. Where a SMILES comes first, the peptide text is derived from it. Bridges are numbered along the chain shown (N, C = ends). [ ]: non-standard residue; d: D form. S5 = C=CCCC[C@](C)(N)C(=O)O

What was measured:
[1] = system: erythrocytes (RBCs); assay type: cell-based, human; conditions: for Hemolytic activity, lysed RBCs: 1 h
Procedure: (§1) Fresh venous blood from healthy donors was collected in lepirudine tubes (50 μg mL-1). Then 50 μL of blood were transferred to round-bottom 96-wells plate containing 150 μL of peptides previously diluted in RPMI-1640—GlutaMAX-I without phenol red (Gibco). 1:4 diluted blood was used as control. 50 μL of blood mixed with 150 μl 5% Tween-20 were used as positive control. After 1 h incubation at 37° C. and 5% CO2, the plate was centrifuged at 800 g, 150 μL of each sample were transferred to a flat-bottom 96-wells plate and the absorbance at 450 nm was measured. The percentage of hemolysis was calculated following the formula reported below: […]
To evaluate the hemolytic effect of the peptides on erythrocytes the blood was collected as reported above and centrifuged at 250 g for 10 min. Then plasma was discarded, and red blood cells were washed with 150 mM NaCl in 10 mM Tris pH 7.4 for three times. Next, the pellet was dilute 100 times with saline Tris buffer. 100 μL of this solution were added to round-bottom 96-wells plate containing 100 μL of peptides previously diluted in saline Tris buffer. After 1 h incubation at 37° C. and 5% CO2, the plate was centrifuged and the absorbance at 450 nm was measured, then the percentage of erythrocyte lysis was determined using formula reported above.
(§2) Data shown are mean values±SEM obtained from at least four independent experiments all made in triplicate. For each experiment blood from a different donor was used.

[2] = system: whole blood; assay type: cell-based, human; conditions: 1 h
Procedure: as §1, §2

Compound | Hemolytic activity, lysed RBCs [1] [%] | Hemolytic activity, lysed RBCs in whole blood [2] [%] | hemolytic activity, RBCs or whole blood (heatmaps FIG. 4, FIG. 20a), in words [1] | further results
CC[C@H](C)[C@H](NC(=O)[C@H](Cc1c[nH]c2ccccc12)NC(=O)[C@H](CCCCN)NC(=O)[C@H](CCCCN)NC(=O)[C@H](CC(C)C)NC(=O)[C@H](CCCNC(=N)N)NC(=O)[C@H](Cc1ccccc1)NC(=O)[C@@H](NC(=O)[C@@H](N)Cc1cnc[nH]1)C(C)C)C(=O)N[C@@H](CCC(N)=O)C(=O)N[C@@H](CCCCN)C(=O)N[C@H](C(=O)N[C@H](C(=O)N[C@@H](CC(=O)O)C(=O)N[C@@H](CCC(N)=O)C(=O)N[C@@H](Cc1ccccc1)C(=O)NCC(=O)N[C@@H](CCC(=O)O)C(=O)O)[C@@H](C)CC)C(C)C [HVF18, reference compound] (H-HVFRLKKWIQKVIDQFGE-OH) | – | – | – | Hemolytic activity, lysed RBCs ([1]; 50 μM): 28.5 ± 3.0 %; Hemolytic activity, lysed RBCs in whole blood ([2]; 50 μM): <1* %
CC[C@H](C)[C@H](NC(=O)[C@H](Cc1c[nH]c2ccccc12)NC(=O)[C@H](CCCCN)NC(=O)[C@H](CCCCN)NC(=O)[C@H](CC(C)C)NC(=O)[C@H](CCCNC(=N)N)NC(=O)[C@H](Cc1ccccc1)NC(=O)[C@@H](NC(=O)[C@H](CCCCN)NC(=O)[C@H](CCCCN)NC(=O)[C@H](CCCCN)NC(=O)[C@@H](N)CCCCN)C(C)C)C(=O)N[C@@]1(C)CCCC=CCCC[C@@](C)(C(=O)N[C@@H](CCC(N)=O)C(=O)N[C@@H](Cc2ccccc2)C(=O)NCC(=O)N[C@@H](CCC(=O)O)C(=O)O)NC(=O)[C@H]([C@@H](C)CC)NC(=O)[C@H](C(C)C)NC(=O)[C@H](CCCCN)NC1=O [sKKKKVF18, KKKKVFRLKKWIX1KVIX2QFGE] (H-KKKKVFRLKKWI[S5]KVI[S5]QFGE-OH; staple 13-17) | 39.1 ± 5.4 | <1 | – | –
CC[C@H](C)[C@H](NC(=O)[C@H](Cc1c[nH]c2ccccc12)NC(=O)[C@H](CCCCN)NC(=O)[C@H](CCCCN)NC(=O)[C@H](CC(C)C)NC(=O)[C@H](CCCNC(=N)N)NC(=O)[C@H](Cc1ccccc1)NC(=O)[C@@H](NC(=O)[C@H](CCCCN)NC(=O)[C@H](CCCCN)NC(=O)[C@@H](N)CCCCN)C(C)C)C(=O)N[C@@]1(C)CCCC=CCCC[C@@](C)(C(=O)N[C@@H](CCC(N)=O)C(=O)N[C@@H](Cc2ccccc2)C(=O)NCC(=O)N[C@@H](CCC(=O)O)C(=O)O)NC(=O)[C@H]([C@@H](C)CC)NC(=O)[C@H](C(C)C)NC(=O)[C@H](CCCCN)NC1=O [sKKKVF18, KKKVFRLKKWIX1KVIX2QFGE] (H-KKKVFRLKKWI[S5]KVI[S5]QFGE-OH; staple 12-16) | 47.1 ± 8.1 | <1 | – | –
CC[C@H](C)[C@H](NC(=O)[C@H](Cc1c[nH]c2ccccc12)NC(=O)[C@H](CCCCN)NC(=O)[C@@H](N)CCCCN)C(=O)N[C@@]1(C)CCCC=CCCC[C@@](C)(C(=O)N[C@@H](CCC(N)=O)C(=O)N[C@@H](Cc2ccccc2)C(=O)NCC(=O)N[C@@H](CCC(=O)O)C(=O)O)NC(=O)[C@H]([C@@H](C)CC)NC(=O)[C@H](C(C)C)NC(=O)[C@H](CCCCN)NC1=O [sKKW13, KKWIX1KVIX2QFGE] (H-KKWI[S5]KVI[S5]QFGE-OH; staple 5-9) | – | – | low hemolytic activity | –
CC[C@H](C)[C@H](NC(=O)[C@H](Cc1c[nH]c2ccccc12)NC(=O)[C@H](CCCCN)NC(=O)[C@H](CCCCN)NC(=O)[C@@H](N)CC(C)C)C(=O)N[C@@]1(C)CCCC=CCCC[C@@](C)(C(=O)N[C@@H](CCC(N)=O)C(=O)N[C@@H](Cc2ccccc2)C(=O)NCC(=O)N[C@@H](CCC(=O)O)C(=O)O)NC(=O)[C@H]([C@@H](C)CC)NC(=O)[C@H](C(C)C)NC(=O)[C@H](CCCCN)NC1=O [sLKK14, LKKWIX1KVIX2QFGE] (H-LKKWI[S5]KVI[S5]QFGE-OH; staple 6-10) | – | – | low hemolytic activity | –
